Measurements: patent US6110888A, “Substituted phenols as fragrance, flavor and antimicrobial compounds” (Takasago International Corporation, priority 1999, dated 2000)
Values after ≈ are worked out from the molar mass of the structure shown.

Key:
Format in all cases: cell-based
[1] = test system: Aspergillus niger; assay: MIC, A. niger (Table 2); details: A. niger strain 16404, fungi, read-out: Anti-Microbial Activity MIC, A. niger
Procedure: (§1) Anti-Microbial Activity of Examples 1-6 (MIC in μg/mL)
(§2) Antimicrobial activity was evaluated to determine minimal inhibitory concentration ("MIC") and Minimal Bactericidal Concentration ("MBC"). The specific biological testing protocol is published R. Kang et al., "J. Agric. Food Chem.," vol. 40 pp. 2328-2330 (1994), the entirety of which is herein incorporated by reference.

[2] = test system: Actinomyces neaslundii; assay: MIC, A. neaslundii (Table 1); details: A. neaslundii strain 19039, gram+, read-out: Anti-Microbial Activity MIC, A. neasl
Procedure: (§3) The anti-microbial activity of Examples 1-6 were evaluated.
as §1, §2

[3] = test system: Pseudomonas aeruginosa; assay: MIC, P. aeruginosa (Table 2); details: P. aeruginosa strain 15442, gram -, read-out: Anti-Microbial Activity MIC, P. aerug.
Procedure: as §1, §2

[4] = test system: Corynebacterium xerosis; assay: MIC, C. xerosis (Table 1); details: C. xerosis strain 373, gram+, read-out: Anti-Microbial Activity MIC, C. x.
Procedure: as §3, §1, §2

[5] = test system: Staphylococcus aureus; assay: MIC, S. aureus (Table 1); details: S. aureus strain 6535, gram+, read-out: Anti-Microbial Activity MIC, S. a.
Procedure: as §3, §1, §2

[6] = test system: Propionibacterium acnes; assay: MIC, P. acnes (Table 1); details: Cutibacterium acnes; P. acnes strain 6919, gram+; read-out: Anti-Microbial Activity MIC, P. acnes
Procedure: as §3, §1, §2

[7] = test system: Staphylococcus epidermidis; assay: MIC, S. epidermidis (Table 1); details: S. epidermidis strain 1228, gram+, read-out: Anti-Microbial Activity MIC, S. e.
Procedure: as §3, §1, §2

[8] = test system: Candida albicans; assay: MIC, C. albicans (Table 2); details: C. albicans strain 10231, fungi, read-out: Anti-Microbial Activity MIC, C. a.
Procedure: as §1, §2

[9] = test system: Steptococcus mutans; assay: MIC, S. mutans (Table 1); details: Streptococcus mutans; S. mutans strain 25175, gram+; read-out: Anti-Microbial Activity MIC, S. m.
Procedure: as §3, §1, §2

[10] = test system: Corynebacterium minutissimum; assay: MIC, C. minutissimum (Table 1); details: C. minutissimum strain 23348, gram+, read-out: Anti-Microbial Activity MIC, C. m.
Procedure: as §3, §1, §2

[11] = test system: Escherichia coli; assay: MIC, E. coli (Table 2); details: E. coli strain 11229, gram -, read-out: Anti-Microbial Activity MIC, E. c.
Procedure: as §1, §2

Compound: C=CCc1c(C)ccc(C(C)C)c1O [Example 1a, Ortho Allyl Thymol]
- MIC [1]: 125 µg/mL (≈ 657 µM)
- MIC [2]: 62.5 µg/mL (≈ 328 µM)
- MIC [3]: > 1000 µg/mL
- MIC [4]: 62.5 µg/mL (≈ 328 µM)
- MIC [5]: 62.5 µg/mL (≈ 328 µM)
- MIC [6]: 62.5 µg/mL (≈ 328 µM)
- MIC [7]: 62.5 µg/mL (≈ 328 µM)
- MIC [8]: 125 µg/mL (≈ 657 µM)
- MIC [9]: 62.5 µg/mL (≈ 328 µM)
- MIC [10]: 62.5 µg/mL (≈ 328 µM)
- MIC [11]: > 1000 µg/mL

Compound: C=CCc1cc(C(C)C)c(O)cc1C [Example 1b, Para Allyl Thymol]
- MIC [1]: 125 µg/mL (≈ 657 µM)
- MIC [2]: 62.5 µg/mL (≈ 328 µM)
- MIC [3]: > 1000 µg/mL
- MIC [4]: 62.5 µg/mL (≈ 328 µM)
- MIC [5]: 62.5 µg/mL (≈ 328 µM)
- MIC [6]: 31.2 µg/mL (≈ 164 µM)
- MIC [7]: 62.5 µg/mL (≈ 328 µM)
- MIC [8]: 125 µg/mL (≈ 657 µM)
- MIC [9]: 31.2 µg/mL (≈ 164 µM)
- MIC [10]: 62.5 µg/mL (≈ 328 µM)
- MIC [11]: > 1000 µg/mL

Compound: C=CCc1c(C(C)C)ccc(C)c1O [Example 2a, Ortho Allyl Carvacrol]
- MIC [1]: 125 µg/mL (≈ 657 µM)
- MIC [2]: 62.5 µg/mL (≈ 328 µM)
- MIC [3]: > 1000 µg/mL
- MIC [4]: 62.5 µg/mL (≈ 328 µM)
- MIC [5]: 62.5 µg/mL (≈ 328 µM)
- MIC [6]: 31.2 µg/mL (≈ 164 µM)
- MIC [7]: 62.5 µg/mL (≈ 328 µM)
- MIC [8]: 125 µg/mL (≈ 657 µM)
- MIC [9]: 62.5 µg/mL (≈ 328 µM)
- MIC [10]: 62.5 µg/mL (≈ 328 µM)
- MIC [11]: > 1000 µg/mL

Compound: C=CCc1cc(C)c(O)cc1C(C)C [Example 2b, Para Allyl Carvacrol]
- MIC [1]: 125 µg/mL (≈ 657 µM)
- MIC [4]: 62.5 µg/mL (≈ 328 µM)
- MIC [5]: 62.5 µg/mL (≈ 328 µM)
- MIC [6]: 62.5 µg/mL (≈ 328 µM)
- MIC [7]: 62.5 µg/mL (≈ 328 µM)
- MIC [8]: 125 µg/mL (≈ 657 µM)
- MIC [9]: 62.5 µg/mL (≈ 328 µM)
- MIC [10]: 62.5 µg/mL (≈ 328 µM)

Compound: CCCc1c(C)ccc(C(C)C)c1O [Example 3a, Ortho Propyl Thymol]
- MIC [1]: 125 µg/mL (≈ 650 µM)
- MIC [2]: 62.5 µg/mL (≈ 325 µM)
- MIC [3]: > 1000 µg/mL
- MIC [4]: 62.5 µg/mL (≈ 325 µM)
- MIC [5]: 62.5 µg/mL (≈ 325 µM)
- MIC [6]: 31.2 µg/mL (≈ 163 µM)
- MIC [7]: 62.5 µg/mL (≈ 325 µM)
- MIC [8]: 125 µg/mL (≈ 650 µM)
- MIC [9]: 31.2 µg/mL (≈ 163 µM)
- MIC [10]: 62.5 µg/mL (≈ 325 µM)
- MIC [11]: > 1000 µg/mL

Compound: CCCc1cc(C(C)C)c(O)cc1C [Example 3b, Para Propyl Thymol]
- MIC [1]: 125 µg/mL (≈ 650 µM)
- MIC [2]: 31.2 µg/mL (≈ 163 µM)
- MIC [3]: > 1000 µg/mL
- MIC [4]: 31.2 µg/mL (≈ 163 µM)
- MIC [5]: 31.2 µg/mL (≈ 163 µM)
- MIC [6]: 31.2 µg/mL (≈ 163 µM)
- MIC [7]: 31.2 µg/mL (≈ 163 µM)
- MIC [8]: 62.5 µg/mL (≈ 325 µM)
- MIC [9]: 31.2 µg/mL (≈ 163 µM)
- MIC [10]: 31.2 µg/mL (≈ 163 µM)
- MIC [11]: > 1000 µg/mL

Compound: CCCc1c(C(C)C)ccc(C)c1O [Example 4a, Ortho Propyl Carvacrol]
- MIC [1]: 125 µg/mL (≈ 650 µM)
- MIC [2]: 31.2 µg/mL (≈ 163 µM)
- MIC [3]: > 1000 µg/mL
- MIC [4]: 31.2 µg/mL (≈ 163 µM)
- MIC [5]: 125 µg/mL (≈ 650 µM)
- MIC [6]: 31.2 µg/mL (≈ 163 µM)
- MIC [7]: 31.2 µg/mL (≈ 163 µM)
- MIC [8]: 62.5 µg/mL (≈ 325 µM)
- MIC [9]: 31.2 µg/mL (≈ 163 µM)
- MIC [10]: 31.2 µg/mL (≈ 163 µM)
- MIC [11]: > 1000 µg/mL
